In PubChem BioAssay (NCI) one finds GI50 and TGI data, which are given here for ten molecules.

Several values for one entry are separate records, joined by “and”; a condition that tells them apart may be missing. Equal values may be shown once.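 1) Cells in 96-well plates. 2) Compound, 48 h, 5 concentrations. 3) Linear interpolation between surrounding doses. 4) Unreached endpoint = highest concentration. The concentration for 50% growth inhibition is given as GI50. TGI marks complete inhibition of growth.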 Where a SMILES comes first, the peptide text is derived from it. [ ]: non-standard residue; d: D form.

Some test systems named below: K-562 leukemia; HL-60(TB) leukemia; HCC-2998 colon; SF-295 CNS; 786-0 renal; NCI-H460 lung; SN12C renal; NCI-H23 lung; SF-539 CNS; OVCAR-3 ovarian.
Common to all, as to assay: NCI anticancer screen, dose series, 48 h

On to `COc1ccc(C2C3=C(COC3=O)N(CCO)c3cc4c(cc32)CCC4)cc1` (centres undefined), for which the GI50 in the assay on K-562 leukemia was 1.69 µM; with HL-60(TB) leukemia, 1.18 µM; in the assay with HCC-2998 colon, 5.76 µM; in the assay with SF-295 CNS, 1.49 µM; in the assay on 786-0 renal, 4.8 µM; in the assay on NCI-H460 lung, 2.37 µM. Also, the GI50 in the assay on SN12C renal was 19 µM; with NCI-H23 lung, 7.05 µM; with SF-539 CNS, 5.09 µM; in the assay on OVCAR-3 ovarian, 1.07 µM. Besides, the TGI with K-562 leukemia is over 50 µM; with HL-60(TB) leukemia it was 3.98 µM; in the assay with HCC-2998 colon it was 25.8 µM; with SF-295 CNS, 6.7 µM; with 786-0 renal, over 50 µM; in the assay on NCI-H460 lung, 26.9 µM. Moreover, the TGI is over 50 µM in the assay on SN12C renal, over 50 µM in the assay with NCI-H23 lung, 28.5 µM in the assay on SF-539 CNS and 2.97 µM with OVCAR-3 ovarian.
`Cc1nc(-n2nc(-c3ccccc3)cc2-c2ccccc2)sc1C(=O)/C=C/c1cccc([N+](=O)[O-])c1`: the TGI in the assay with K-562 leukemia came out at 28.3 µM; in the assay with HL-60(TB) leukemia, 31.3 µM; with HCC-2998 colon it was 28.8 µM; with SF-295 CNS, 43.1 µM; with 786-0 renal, 25.3 µM; in the assay on NCI-H460 lung it was 92 µM. For the same molecule, the TGI is 73.4 µM in the assay on SN12C renal, 41.8 µM with NCI-H23 lung, 22.8 µM with SF-539 CNS and 15.4 µM in the assay with OVCAR-3 ovarian.
For `Cc1c2ccccc2c(C)n2c1nc1cc(Cl)c(Cl)cc12`, the GI50 in the assay with K-562 leukemia is 14.3 µM; in the assay on HL-60(TB) leukemia, 17.5 µM; in the assay on HCC-2998 colon it was over 100 µM; with SF-295 CNS it was over 100 µM; with 786-0 renal, over 100 µM; with NCI-H460 lung, 27.4 µM. The GI50 in the assay on SN12C renal was over 100 µM; in the assay on NCI-H23 lung it was over 100 µM; in the assay on SF-539 CNS it was over 100 µM; with OVCAR-3 ovarian it was 18.6 µM. In addition, the TGI in the assay on K-562 leukemia was 72.1 µM; with HL-60(TB) leukemia, 9.71 µM and 77.1 µM; in the assay with HCC-2998 colon, over 100 µM; in the assay with SF-295 CNS it was over 100 µM; in the assay on 786-0 renal it was over 100 µM; in the assay on NCI-H460 lung, over 100 µM. The TGI with SN12C renal, in the assay on NCI-H23 lung and in the assay with SF-539 CNS was over 100 µM each time.
Take `C[C@@H](C[C@H](CCO)c1ccccc1)c1ccc2ccccc2c1`: the GI50 is 1.63 µM in the assay on K-562 leukemia; 1.91 µM with HL-60(TB) leukemia; 1.74 µM with HCC-2998 colon; 1.72 µM with SF-295 CNS; 1.51 µM in the assay on 786-0 renal; 1.79 µM with NCI-H460 lung. For the same molecule, the GI50 with SN12C renal was 1.69 µM; with NCI-H23 lung, 1.6 µM; in the assay with SF-539 CNS it was 1.68 µM; in the assay on OVCAR-3 ovarian, 1.54 µM. The TGI with K-562 leukemia came out at 3.82 µM; with HL-60(TB) leukemia, 4 µM; in the assay with HCC-2998 colon, 3.27 µM; with SF-295 CNS it was 3.19 µM; in the assay with 786-0 renal it was 2.89 µM; with NCI-H460 lung it was 3.42 µM. Also, the TGI was 3.22 µM in the assay on SN12C renal, 3.38 µM in the assay with NCI-H23 lung, 3.11 µM with SF-539 CNS and 2.91 µM with OVCAR-3 ovarian.
Consider `CSc1nc2ccc(C)cc2cc1/C=C1/C=C(c2ccccc2)NC1=O`, for which the GI50 with K-562 leukemia is 8.83 µM; in the assay with HL-60(TB) leukemia it was over 100 µM; in the assay on HCC-2998 colon, over 100 µM; in the assay with SF-295 CNS, 1.44 µM; with 786-0 renal it was 2 µM; in the assay on NCI-H460 lung, 0.646 µM. The GI50 in the assay on SN12C renal is 4.53 µM; with NCI-H23 lung, 10 µM; with SF-539 CNS, 2.35 µM; with OVCAR-3 ovarian it was 1.78 µM. Besides, the TGI is over 100 µM in the assay on K-562 leukemia; over 100 µM with HL-60(TB) leukemia; over 100 µM with HCC-2998 colon; 15 µM in the assay on SF-295 CNS; 5.89 µM in the assay on 786-0 renal; 10.9 µM with NCI-H460 lung. Moreover, the TGI is 32.3 µM in the assay with SN12C renal, over 100 µM with NCI-H23 lung, 9.66 µM with SF-539 CNS and 15.9 µM with OVCAR-3 ovarian.
As to `CSCC[C@H](NC(=O)[C@@H](N)CC(N)=O)C(=O)N[C@@H](Cc1c[nH]c2ccccc12)C(=O)N[C@@H](CCC(N)=O)C(=O)N[C@@H](CCC(=O)O)C(=O)N[C@H](C(=O)NCC(=O)N[C@@H](CCCCN)C(=O)N[C@H](C)C(=O)O)C(C)C` (H-NMWQEVGK[dA]-OH), the TGI in the assay on K-562 leukemia, in the assay with HL-60(TB) leukemia, in the assay on HCC-2998 colon, in the assay with SF-295 CNS, in the assay with 786-0 renal and with NCI-H460 lung was over 100 µM each time. In addition, the TGI in the assay with SN12C renal, in the assay with NCI-H23 lung, in the assay on SF-539 CNS and in the assay with OVCAR-3 ovarian was over 100 µM throughout.
On to `NC1=C(O)C(=O)C(c2c[nH]c3ccc(OCc4ccccc4)cc23)O1` (centres undefined), for which the TGI in the assay with K-562 leukemia is over 100 µM; in the assay on HL-60(TB) leukemia, over 100 µM; in the assay on HCC-2998 colon, over 76.3 µM; with SF-295 CNS it was over 100 µM; in the assay on 786-0 renal it was over 100 µM; with NCI-H460 lung it was over 100 µM. The TGI in the assay with SN12C renal, with NCI-H23 lung, in the assay with SF-539 CNS and with OVCAR-3 ovarian was over 100 µM in each case.
For `COc1cc([C@@H]2c3cc4c(cc3[C@@H](NCc3cccc(F)c3)C3COC(=O)[C@@H]32)OCO4)cc(OC)c1O` (some centres undefined), the TGI is 28.9 µM with K-562 leukemia; 3.93 µM with HL-60(TB) leukemia; 20.9 µM in the assay on HCC-2998 colon; over 65 µM with SF-295 CNS; 10.2 µM in the assay on 786-0 renal; 9.23 µM with NCI-H460 lung. Also, the TGI in the assay on SN12C renal turned out to be 12.8 µM; in the assay with NCI-H23 lung it was 7.89 µM; with SF-539 CNS, 10.8 µM; in the assay with OVCAR-3 ovarian, 30.5 µM.
As to `CC/C(C)=C1\CCC(CN(C)C)C1=O` (centres undefined), the TGI in the assay with K-562 leukemia was 79.5 µM; in the assay on HL-60(TB) leukemia, 43.7 µM; in the assay with HCC-2998 colon it was 39.9 µM; in the assay on SF-295 CNS, over 100 µM; in the assay on 786-0 renal it was 29.3 µM; in the assay on NCI-H460 lung, 33.4 µM. Besides, the TGI with SN12C renal is 38.3 µM; in the assay on NCI-H23 lung, 42.9 µM; with SF-539 CNS, 32.7 µM; with OVCAR-3 ovarian it was 33.2 µM.
For `Oc1ccc(O)c(-n2cccn2)c1-n1cccn1`, the TGI is over 100 µM in the assay with K-562 leukemia; over 10 µM in the assay with HL-60(TB) leukemia; over 100 µM in the assay on HCC-2998 colon; over 100 µM in the assay on SF-295 CNS; over 100 µM with 786-0 renal; over 100 µM in the assay with NCI-H460 lung. The TGI with SN12C renal, with NCI-H23 lung, in the assay with SF-539 CNS and in the assay on OVCAR-3 ovarian was over 100 µM throughout.
